Results: paper PMC12040169 (PLOS Biology, 2025)

Assay: in vitro
Settings: human, hela cells, % viability

First: CC(C)C(=O)Nc1ccc(-c2ccccc2)c2ccccc12 [CBK083731]
Second: CC(C)C(=O)Nc1ccc(-c2ccsc2)c2ccccc12 [CBK083758]
The viability at 28.5 h, 10 µM of the first is higher: 101% for the first, 92.7% for the second.

Compared with CS(=O)(=O)Nc1ccc(-c2ccccc2)c2ccccc12 [CBK083741], CS(=O)(=O)Nc1ccc(-c2ccsc2)c2ccccc12 [CBK083742] is higher in viability at 28.5 h, 10 µM: 93.2% for the first, 98.7% for the second.

Compared with CS(=O)(=O)Nc1ccc(-c2cc(F)cc(F)c2)c2ccccc12 [CBK083743], Nc1ccc(-c2cc(F)cc(F)c2)c2ccccc12 [CBK084314] is higher in viability at 28.5 h, 10 µM: 89.8% for the first, 93.2% for the second.

Compared with COc1cc(F)ccc1-c1ccc(NS(C)(=O)=O)c2ccccc12 [CBK083744], COc1ccc(C(C)C)cc1-c1ccc(NS(C)(=O)=O)c2ccccc12 [CBK083747] is lower in viability at 28.5 h, 10 µM: 97.9% for the first, 97.8% for the second.

Going from CS(=O)(=O)Nc1ccc(-c2ccc3c(c2)CCO3)c2ccccc12 [CBK083753] to Nc1ccc(-c2ccc3c(c2)OCCCO3)c2ccccc12 [CBK084325], the viability at 28.5 h, 10 µM rises from 76.5% to 87.9%.

First: COc1ccc(CN2CCCN(c3ccnc(OCCN4CCOCC4)n3)CC2)cc1 [CBK083800]
Second: CCN1CCCN(c2ccnc(OCCN3CCOCC3)n2)CC1 [CBK083807]
The viability at 28.5 h, 10 µM of the first is lower: 99.2% for the first, 114% for the second.

Compared with OCCCN1CCCN(c2ccnc(OCCN3CCOCC3)n2)CC1 [CBK083808], c1ccc(CCN2CCCN(c3ccnc(OCCN4CCOCC4)n3)CC2)cc1 [CBK083810] is lower in viability at 28.5 h, 10 µM: 104% for the first, 89.3% for the second.

Going from CCOC(=O)CN1CCCN(c2ccnc(OC3CCCCC3)n2)CC1 [CBK083864] to COc1ccnc(N2CCCN(CC(N)=O)CC2)n1 [CBK083992], the viability at 28.5 h, 10 µM falls from 90.9% to 87.2%.

First: c1ccc(OCCN2CCCN(c3nccc(OCCN4CCOCC4)n3)CC2)cc1 [CBK083940]
Second: c1cncc(COc2ccnc(N3CCCN(CCN4CCOCC4)CC3)n2)c1 [CBK084122]
The viability at 28.5 h, 10 µM of the first is higher: 110% for the first, 88.5% for the second.

Compared with FC(F)(F)c1ccc(CN2CCCN(c3nccc(OCc4ccc(Cl)c(Cl)c4)n3)CC2)cc1 [CBK083949], COc1ccc(CCN2CCCN(c3nccc(OCc4ccc(Cl)c(Cl)c4)n3)CC2)cc1OC [CBK083965] is higher in viability at 28.5 h, 10 µM: 94.5% for the first, 96.4% for the second.

First: Clc1ccc(CN2CCCN(c3nccc(OCC4COc5ccccc5O4)n3)CC2)cc1Cl (stereo not drawn) [CBK083967]
Second: Clc1ccc(CN2CCCN(c3nccc(OCC4COc5ccccc5O4)n3)CC2)cc1 (stereo not drawn) [CBK084038]
The viability at 28.5 h, 10 µM of the first is higher: 97.3% for the first, 84.9% for the second.

Compared with c1cncc(CN2CCCN(c3nccc(OCC4COc5ccccc5O4)n3)CC2)c1 (stereo not drawn) [CBK083969], N#CCCCN1CCCN(c2nccc(OCC3COc4ccccc4O3)n2)CC1 (stereo not drawn) [CBK083977] is lower in viability at 28.5 h, 10 µM: 112% for the first, 90.2% for the second.

Compared with Cc1cccc(C)c1NC(=O)CN1CCCN(c2nccc(OCC3COc4ccccc4O3)n2)CC1 (stereo not drawn) [CBK083974], CCOC(=O)CN1CCCN(c2nccc(OCC3COc4ccccc4O3)n2)CC1 (stereo not drawn) [CBK083975] is lower in viability at 28.5 h, 10 µM: 102% for the first, 100% for the second.

Compared with c1ccc2c(c1)OCC(COc1ccnc(N3CCCN(CCc4ccc5ccccc5c4)CC3)n1)O2 (stereo not drawn) [CBK083983], COc1ccc(Oc2nccc(N3CCCN(CCc4ccc5ccccc5c4)CC3)n2)cc1OC [CBK084164] is lower in viability at 28.5 h, 10 µM: 90.7% for the first, 87% for the second.

Going from CS(=O)(=O)N1CC2(CCN(Cc3ccccc3F)CC2)c2ccccc21 [CBK084004] to CS(=O)(=O)N1CC2(CCN(CCc3c[nH]c4ccccc34)CC2)c2ccccc21 [CBK084017T], the viability at 28.5 h, 10 µM falls from 103% to 97.9%.

Compared with CS(=O)(=O)N1CC2(CCN(Cc3ccc([N+](=O)[O-])cc3)CC2)c2ccccc21 [CBK084010], CS(=O)(=O)N1CC2(CCN(Cc3ccc(Cl)c(Cl)c3)CC2)c2ccccc21 [CBK084043] is lower in viability at 28.5 h, 10 µM: 104% for the first, 102% for the second.

First: CS(=O)(=O)N1CC2(CCN(CC3CCCCC3)CC2)c2ccccc21 [CBK084018]
Second: CS(=O)(=O)Nc1nccnc1OC1CCN(CC2CCCCC2)CC1 [CBK084284]
The viability at 28.5 h, 10 µM of the first is higher: 96.8% for the first, 89.9% for the second.

First: Clc1ccc(COc2cc(N3CCCN(CC4CC4)CC3)ncn2)cc1Cl [CBK084070]
Second: Cc1cc(COc2ccnc(N3CCCN(CC4CC4)CC3)n2)no1 [CBK084073]
The viability at 28.5 h, 10 µM of the first is lower: 90.8% for the first, 91.1% for the second.

First: c1cncc(COc2ccnc(N3CCCN(Cc4ccc5c(c4)OCO5)CC3)n2)c1 [CBK084112]
Second: Cc1cc(COc2ccnc(N3CCCN(CCCC#N)CC3)n2)no1 [CBK084144]
The viability at 28.5 h, 10 µM of the first is lower: 92.5% for the first, 96.8% for the second.

First: COc1ccnc(N2CCCN(CCN3CCOCC3)CC2)n1 [CBK084120]
Second: COc1nccnc1N1CCN(CCSC)CC1 [CBK084227]
The viability at 28.5 h, 10 µM of the first is higher: 119% for the first, 90.2% for the second.

Going from Cc1cc(COc2nccnc2N2CCN(CC(N)=O)CC2)no1 [CBK084192] to Cc1cc(COc2nccnc2N2CCN(CCCO)CC2)no1 [CBK084197], the viability at 28.5 h, 10 µM falls from 91% to 89.6%.

First: Cc1cc(COc2nccnc2N2CCN(CCCn3c(=O)[nH]c4ccccc43)CC2)no1 [CBK084199]
Second: COc1ccc(CCN2CCN(c3nccnc3OCc3cc(C)on3)CC2)cc1OC [CBK084207]
The viability at 28.5 h, 10 µM of the first is higher: 107% for the first, 105% for the second.

Compared with COc1nccnc1N1CCN(Cc2ccc(Cl)c(Cl)c2)CC1 [CBK084209], COc1nccnc1N1CCN(Cc2ccccc2)CC1 [CBK084210] is lower in viability at 28.5 h, 10 µM: 92.1% for the first, 90% for the second.

First: COc1nccnc1N1CCN(Cc2cccnc2)CC1 [CBK084213]
Second: COc1nccnc1N1CCN(CCc2ccccc2)CC1 [CBK084228]
The viability at 28.5 h, 10 µM of the first is lower: 91.2% for the first, 102% for the second.

Going from COc1nccnc1N1CCN(Cc2ccc([N+](=O)[O-])cc2)CC1 [CBK084217] to COc1nccnc1OC1CCN(Cc2ccc([N+](=O)[O-])cc2)CC1 [CBK084245], the viability at 28.5 h, 10 µM rises from 103% to 105%.

Compared with COc1nccnc1N1CCN(CC(=O)Nc2c(C)cccc2C)CC1 [CBK084220], COc1nccnc1OC1CCN(CC(=O)Nc2c(C)cccc2C)CC1 [CBK084249] is higher in viability at 28.5 h, 10 µM: 89.1% for the first, 96.1% for the second.

Going from COc1nccnc1N1CCN(CCCC#N)CC1 [CBK084225] to N#CCCCN1CCN(c2nccnc2OCCN2C(=O)CCC2=O)CC1 [CBK084299], the viability at 28.5 h, 10 µM rises from 86.9% to 102%.

First: COc1nccnc1N1CCN(CCOc2ccccc2)CC1 [CBK084230]
Second: COc1nccnc1OC1CCN(CCOc2ccccc2)CC1 [CBK084260]
The viability at 28.5 h, 10 µM of the first is lower: 94.1% for the first, 94.4% for the second.

Compared with COc1nccnc1N1CCN(CCc2c[nH]c3ccccc23)CC1 [CBK084231], COc1nccnc1OC1CCN(CCc2c[nH]c3ccccc23)CC1 [CBK084261] is higher in viability at 28.5 h, 10 µM: 89.2% for the first, 93.6% for the second.

Compared with COc1nccnc1OC1CCN(Cc2ccccc2)CC1 [CBK084238], COc1nccnc1OC1CCN(Cc2ccc(Cl)cc2)CC1 [CBK084240] is lower in viability at 28.5 h, 10 µM: 103% for the first, 98.7% for the second.

First: COc1nccnc1OC1CCN(Cc2ccccc2-c2ccccc2)CC1 [CBK084246]
Second: COc1nccnc1OC1CCN(CCCC#N)CC1 [CBK084255]
The viability at 28.5 h, 10 µM of the first is lower: 87.7% for the first, 90% for the second.

Going from COc1nccnc1OC1CCN(CC2CCCCC2)CC1 [CBK084263] to O=C1CCC(=O)N1CCOc1nccnc1OC1CCN(CC2CCCCC2)CC1 [CBK084357], the viability at 28.5 h, 10 µM rises from 96.2% to 105%.

First: CS(=O)(=O)Nc1nccnc1N1CCN(Cc2ccccc2)CC1 [CBK084268]
Second: COc1ccc(CN2CCN(c3nccnc3NS(C)(=O)=O)CC2)cc1 [CBK084273]
The viability at 28.5 h, 10 µM of the first is higher: 96.5% for the first, 88.7% for the second.

Compared with CC(C)c1ccc(CN2CCN(c3nccnc3NS(C)(=O)=O)CC2)cc1 [CBK084271], O=C1CCC(=O)N1CCOc1nccnc1N1CCN(Cc2ccc(Cl)cc2)CC1 [CBK084290] is higher in viability at 28.5 h, 10 µM: 91% for the first, 96.1% for the second.

Going from COc1ccc(CCN2CCC(Oc3nccnc3NS(C)(=O)=O)CC2)cc1OC [CBK084285] to CS(=O)(=O)Nc1nccnc1OC1CCN(CCc2ccccn2)CC1 [CBK084286], the viability at 28.5 h, 10 µM rises from 103% to 109%.

First: O=C1CCC(=O)N1CCOc1nccnc1N1CCN(Cc2ccccc2)CC1 [CBK084288]
Second: O=C1CCC(=O)N1CCOc1nccnc1N1CCN(CCc2ccccc2)CC1 [CBK084302]
The viability at 28.5 h, 10 µM of the first is lower: 87.9% for the first, 99.4% for the second.

Going from O=C1CCC(=O)N1CCOc1nccnc1N1CCN(Cc2ccccc2F)CC1 [CBK084289] to O=C1CCC(=O)N1CCOc1nccnc1N1CCN(CCc2c[nH]c3ccccc23)CC1 [CBK084304], the viability at 28.5 h, 10 µM falls from 97.8% to 95.5%.

Compared with O=C1CCC(=O)N1CCOc1nccnc1N1CCN(CC2CC2)CC1 [CBK084305], O=C1CCC(=O)N1CCOc1nccnc1N1CCN(CC2CCCCC2)CC1 [CBK084306] is lower in viability at 28.5 h, 10 µM: 93.9% for the first, 88.9% for the second.

First: O=C1CCC(=O)N1CCOc1nccnc1N1CCN(CCc2ccc3ccccc3c2)CC1 [CBK084307]
Second: O=C1CCC(=O)N1CCOc1nccnc1OC1CCN(CCc2ccc3ccccc3c2)CC1 [CBK084358]
The viability at 28.5 h, 10 µM of the first is lower: 96.4% for the first, 99.4% for the second.

Going from O=C1CCC(=O)N1CCOc1nccnc1N1CCN(CCc2ccccn2)CC1 [CBK084309] to O=C1CCC(=O)N1CCOc1nccnc1OC1CCN(CCc2ccccn2)CC1 [CBK084360], the viability at 28.5 h, 10 µM falls from 109% to 99.5%.

Going from Nc1ccc(-c2ccccc2)c2ccccc12 [CBK084312] to Nc1ccc(-c2cccc(C(F)(F)F)c2)c2ccccc12 [CBK084324], the viability at 28.5 h, 10 µM falls from 97.1% to 80%.

First: COc1cc(F)ccc1-c1ccc(N)c2ccccc12 [CBK084319]
Second: COc1cc(-c2ccc(N)c3ccccc23)cc(OC)c1OC [CBK084332]
The viability at 28.5 h, 10 µM of the first is higher: 103% for the first, 83.5% for the second.

Going from CS(=O)(=O)c1ccc(-c2ccc(N)c3ccccc23)cc1 [CBK084326] to O=C1CCC(=O)N1CCOc1nccnc1OC1CCN(CCc2c[nH]c3ccccc23)CC1 [CBK084355], the viability at 28.5 h, 10 µM falls from 95.4% to 94.6%.

Going from O=C1CCC(=O)N1CCOc1nccnc1OC1CCN(Cc2ccc(C(F)(F)F)cc2)CC1 [CBK084341] to CSCCN1CCC(Oc2nccnc2OCCN2C(=O)CCC2=O)CC1 [CBK084351], the viability at 28.5 h, 10 µM rises from 96% to 100%.

First: N#CCCCN1CCC(Oc2nccnc2OCCN2C(=O)CCC2=O)CC1 [CBK084349]
Second: O=C1CCC(=O)N1CCOc1nccnc1OC1CCN(CCCn2c(=O)[nH]c3ccccc32)CC1 [CBK084350]
The viability at 28.5 h, 10 µM of the first is higher: 99.4% for the first, 90.2% for the second.
